# How the values were obtained:
# [1] = tested on: NQO1 activity in Hepa1c1c7 cells; experiment: NAD(P)H: quinone oxidoreductase-1 (NQO1) enzyme induction assay (in vitro); assay type: cell-based, mouse; details: Mus musculus, Hepa-1c1c7, NQO1 activity upon addition of 400 nM of test compound, about 48 hr, ratio from the base without the compound
# How it was run: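 Mouse Hepa1c1c7 hepatoma cells were treated with 400 nM compound for about 48 h, then lysed with digitonin/EDTA. NQO1 activity was measured as menadione-mediated MTT reduction with a G6P/G6PDH NADPH-regenerating system, stopped with dicoumarol, and read at A610. Values are the activity ratio versus untreated base wells.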
# [2] = target: GST-fused human Keap1 (amino acid residues: 325-642) protein (Homo sapiens (Human), UniProt Q14145); experiment: FP assay (in vitro): inhibition of binding between Nrf2 and Keap1 by fluorescence polarization; details: 20 nM GST-fused human Keap1, 10 nM FITC-labeled Nrf2 peptide, 2 hr at room temperature
# Chain of GST-fused human Keap1 (amino acid residues: 325-642) protein (Q14145 325-624 limits assumed): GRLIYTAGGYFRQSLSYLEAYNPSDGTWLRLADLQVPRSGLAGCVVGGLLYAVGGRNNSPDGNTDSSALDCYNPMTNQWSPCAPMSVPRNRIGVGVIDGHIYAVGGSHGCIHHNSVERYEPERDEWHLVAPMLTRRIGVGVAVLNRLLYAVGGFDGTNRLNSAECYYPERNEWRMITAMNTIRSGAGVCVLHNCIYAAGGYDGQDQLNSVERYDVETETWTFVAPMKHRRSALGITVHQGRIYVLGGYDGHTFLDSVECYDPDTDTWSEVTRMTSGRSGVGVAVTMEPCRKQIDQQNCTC
IC50 [2],Compound,fold induction at 0.4 µM [1]
0.01 to 0.03 µM,"Cc1c([C@@H](CC(=O)O)c2cc(CN3Cc4nc(O)ccc4OC4(CC4)C3)c3sccc3c2)ccc2c1nnn2C [Example 3, (3S)-3-(1,4-Dimethyl-1H-benzotriazol-5-yl)-3-{7-[(7′-hydroxy-3′H-spiro[cyclopropane-1,2′-pyrido[2,3-f][1,4]oxazepin]-4′(5′H)-yl)methyl]-1-benzothiophen-5-yl}propanoic acid]",> 5
0.01 to 0.03 µM,"CC[C@H]1Cc2cccnc2CN(Cc2cc([C@@H](CC(=O)O)c3ccc4c(nnn4C)c3C)cc3ccsc23)C1 [Example 69, (3R)-3-(1,4-Dimethyl-1H-benzotriazol-5-yl)-3-(7-{[(6S)-6-ethyl-5,6,7,9-tetrahydro-8H-pyrido[2,3-c]azepin-8-yl]methyl}-1-benzothiophen-5-yl)propanoic acid]",> 5
0.03 to 0.3 µM,"CC[C@@H]1CN(Cc2cc([C@@H](CC(=O)O)c3ccc4c(nnn4C)c3C)cc3ccsc23)Cc2nc(O)ccc2O1 [Example 2, (3R)-3-(1,4-Dimethyl-1H-benzotriazol-5-yl)-3-(7-{[(2R)-2-ethyl-7-hydroxy-2,3-dihydropyrido[2,3-f][1,4]oxazepin-4(5H)-yl]methyl}-1-benzothiophen-5-yl)propanoic acid]",> 5
0.01 to 0.03 µM,"CC[C@@H]1CN(Cc2cc([C@@H](CC(=O)O)c3cc(OC(F)F)c4c(nnn4C)c3C)cc3ccsc23)Cc2nc(O)ccc2O1 [Example 43, (3R)-3-[7-(Difluoromethoxy)-1,4-dimethyl-1H-benzotriazol-5-yl]-3-(7-{[(2R)-2-ethyl-7-hydroxy-2,3-dihydropyrido[2,3-f][1,4]oxazepin-4(5H)-yl]methyl}-1-benzothiophen-5-yl)propanoic acid]",> 5
≤ 0.01 µM,"CC[C@@H]1CN(Cc2cc([C@@H](CC(=O)O)c3cc(OC(F)(F)F)c4c(nnn4C)c3C)cc3ccsc23)Cc2nc(O)ccc2O1 [Example 41, (3R)-3-[1,4-Dimethyl-7-(trifluoromethoxy)-1H-benzotriazol-5-yl]-3-(7-{[(2R)-2-ethyl-7-hydroxy-2,3-dihydropyrido[2,3-f][1,4]oxazepin-4(5H)-yl]methyl}-1-benzothiophen-5-yl)propanoic acid]",> 5
0.01 to 0.03 µM,"CC[C@@H]1CN(Cc2cc([C@H](CC(=O)O)c3ccc4c(nnn4CCN(C)C)c3C)cc3ccsc23)Cc2nc(O)ccc2O1 [Example 26, (3S)-3-{1-[2-(Dimethylamino)ethyl]-4-methyl-1H-benzotriazol-5-yl}-3-(7-{[(2R)-2-ethyl-7-hydroxy-2,3-dihydropyrido[2,3-f][1,4]oxazepin-4(5H)-yl]methyl}-1-benzothiophen-5-yl)propanoic acid]",3 to 5
0.03 to 0.3 µM,"CC[C@@H]1CN(Cc2cc([C@H](CC(=O)O)c3cc(C)c4c(nnn4C)c3C)cc3ccsc23)Cc2nc(O)ccc2O1 [Example 17, (3S)-3-(7-{[(2R)-2-Ethyl-7-hydroxy-2,3-dihydropyrido[2,3-f][1,4]oxazepin-4(5H)-yl]methyl}-1-benzothiophen-5-yl)-3-(1,4,7-trimethyl-1H-benzotriazol-5-yl)propanoic acid]",> 5
≤ 0.01 µM,"CC[C@H]1Cc2ccc(N)nc2CN(Cc2cc([C@@H](CC(=O)O)c3ccc4c(nnn4C)c3C)cc3ccsc23)C1 [Example 83, (3R)-3-(7-{[(6S)-2-Amino-6-ethyl-5,6,7,9-tetrahydro-8H-pyrido[2,3-c]azepin-8-yl]methyl}-1-benzothiophen-5-yl)-3-(1,4-dimethyl-1H-benzotriazol-5-yl)propanoic acid]",> 5
0.03 to 0.3 µM,"CC[C@H]1Cc2ccc(O)nc2CN(Cc2cc([C@@H](CC(=O)O)c3ccc4c(nnn4C)c3C)cc3ccsc23)C1 [Example 72, (3R)-3-(1,4-Dimethyl-1H-benzotriazol-5-yl)-3-(7-{[(6S)-6-ethyl-2-hydroxy-5,6,7,9-tetrahydro-8H-pyrido[2,3-c]azepin-8-yl]methyl}-1-benzothiophen-5-yl)propanoic acid]",> 5
≤ 0.01 µM,"Cc1c([C@@H](CC(=O)O)c2cc(CN3Cc4nc(O)ccc4O[C@H](C(F)(F)F)C3)c3sccc3c2)ccc2c1nnn2C [Example 38, (3S)-3-(1,4-Dimethyl-1H-benzotriazol-5-yl)-3-(7-{[(2S)-7-hydroxy-2-(trifluoromethyl)-2,3-dihydropyrido[2,3-f][1,4]oxazepin-4(5H)-yl]methyl}-1-benzothiophen-5-yl)propanoic acid]",> 5
0.01 to 0.03 µM,"Cc1c([C@@H](CC(=O)O)c2cc(CN3Cc4nc(O)ccc4O[C@H](C)C3)c3sccc3c2)ccc2c1nnn2C [Example 15, (3S)-3-(1,4-Dimethyl-1H-benzotriazol-5-yl)-3-(7-{[(2R)-7-hydroxy-2-methyl-2,3-dihydropyrido[2,3-f][1,4]oxazepin-4(5H)-yl]methyl}-1-benzothiophen-5-yl)propanoic acid]",> 5
0.03 to 0.3 µM,"CC[C@@H]1Cc2cccnc2CN(Cc2cc(C(CC(=O)O)c3ccc4c(nnn4C)c3C)cc3ccsc23)C1 (stereo partly drawn) [Example 63, 3-(1,4-Dimethyl-1H-benzotriazol-5-yl)-3-(7-{[(6R)-6-ethyl-5,6,7,9-tetrahydro-8H-pyrido[2,3-c]azepin-8-yl]methyl}-1-benzothiophen-5-yl)propanoic acid]",3 to 5
≤ 0.01 µM,"CC[C@@H]1CN(Cc2cc([C@H](CC(=O)O)c3ccc4c(nnn4C)c3C)cc3ccsc23)Cc2nc(NC)ccc2O1 [Example 78, (3S)-3-(1,4-Dimethyl-1H-benzotriazol-5-yl)-3-(7-{[(2R)-2-ethyl-7-(methylamino)-2,3-dihydropyrido[2,3-f][1,4]oxazepin-4(5H)-yl]methyl}-1-benzothiophen-5-yl)propanoic acid]",3 to 5
0.3 to 3 µM,"Cc1c([C@@H](CC(=O)O)c2cc(CN3Cc4nc(O)ccc4O[C@@H](C(F)(F)F)C3)c3sccc3c2)ccc2c1nnn2C [Example 40, (3S)-3-(1,4-Dimethyl-1H-benzotriazol-5-yl)-3-(7-{[(2R)-7-hydroxy-2-(trifluoromethyl)-2,3-dihydropyrido[2,3-f][1,4]oxazepin-4(5H)-yl]methyl}-1-benzothiophen-5-yl)propanoic acid]",1.5 to 3
0.03 to 0.3 µM,"Cc1c([C@@H](CC(=O)O)c2cc(CN3Cc4nc(O)ccc4O[C@@H](C4CC4)C3)c3sccc3c2)ccc2c1nnn2C [Example 7, (3S)-3-(7-{[(2S)-2-Cyclopropyl-7-hydroxy-2,3-dihydropyrido[2,3-f][1,4]oxazepin-4(5H)-yl]methyl}-1-benzothiophen-5-yl)-3-(1,4-dimethyl-1H-benzotriazol-5-yl)propanoic acid]",> 5
0.01 to 0.03 µM,"CC[C@H]1Cc2ccc(O)nc2CN(Cc2cc([C@H](CC(=O)O)c3ccc4c(nnn4C)c3C)cc3ccsc23)C1 [Example 73, (3S)-3-(1,4-Dimethyl-1H-benzotriazol-5-yl)-3-(7-{[(6S)-6-ethyl-2-hydroxy-5,6,7,9-tetrahydro-8H-pyrido[2,3-c]azepin-8-yl]methyl}-1-benzothiophen-5-yl)propanoic acid]",> 5
≤ 0.01 µM,"CC[C@@H]1CN(Cc2cc([C@H](CC(=O)O)c3cc(OC(F)F)c4c(nnn4C)c3C)cc3ccsc23)Cc2nc(O)ccc2O1 [Example 44, (3S)-3-[7-(Difluoromethoxy)-1,4-dimethyl-1H-benzotriazol-5-yl]-3-(7-{[(2R)-2-ethyl-7-hydroxy-2,3-dihydropyrido[2,3-f][1,4]oxazepin-4(5H)-yl]methyl}-1-benzothiophen-5-yl)propanoic acid]",> 5
≤ 0.01 µM,"CC[C@@H]1CN(Cc2cc(C(CC(=O)O)c3ccc4c(nnn4C)c3C)cc3ccsc23)Cc2nc(C(F)(F)F)ccc2O1 (stereo partly drawn) [Example 93, 3-(1,4-Dimethyl-1H-benzotriazol-5-yl)-3-(7-{[(2R)-2-ethyl-7-(trifluoromethyl)-2,3-dihydropyrido[2,3-f][1,4]oxazepin-4(5H)-yl]methyl}-1-benzothiophen-5-yl)propanoic acid]",> 5
0.03 to 0.3 µM,"CC[C@@H]1CN(Cc2cc([C@@H](CC(=O)O)c3ccn4c(C)nnc4c3C)cc3ccsc23)Cc2nc(O)ccc2O1 (single isomer, unassigned) [Example 52, (3R*)-3-(3,8-Dimethyl[1,2,4]triazolo[4,3-a]pyridin-7-yl)-3-(7-{[(2R)-2-ethyl-7-hydroxy-2,3-dihydropyrido[2,3-f][1,4]oxazepin-4(5H)-yl]methyl}-1-benzothiophen-5-yl)propanoic acid]",3 to 5
0.3 to 3 µM,"Cc1c([C@@H](c2cc(CN3Cc4nc(O)ccc4OC4(CC4)C3)c3sccc3c2)C(C)(C)C(=O)O)ccc2c1nnn2C [Example 47, (3R)-3-(1,4-Dimethyl-1H-benzotriazol-5-yl)-3-{7-[(7′-hydroxy-3′H-spiro[cyclopropane-1,2′-pyrido[2,3-f][1,4]oxazepin]-4′ (5′H)-yl)methyl]-1-benzothiophen-5-yl}-2,2-dimethylpropanoic acid]",1.5 to 3
≤ 0.01 µM,"CC[C@@H]1CN(Cc2cc([C@@H](CC(=O)O)c3cc(Cl)c4c(nnn4C)c3C)cc3ccsc23)Cc2nc(O)ccc2O1 [Example 31, (3R)-3-(7-Chloro-1,4-dimethyl-1H-benzotriazol-5-yl)-3-(7-{[(2R)-2-ethyl-7-hydroxy-2,3-dihydropyrido[2,3-f][1,4]oxazepin-4(5H)-yl]methyl}-1-benzothiophen-5-yl)propanoic acid]",> 5

# Reference: patent publication US20250296939A1, “BENZOTHIOPHENE COMPOUND” (Kyoto Pharmaceutical Industries, Ltd., priority 2022, published 2025)
